Experiment: Metabolic stability with rat hepatocytes cell culture C.5.b
Assay type: in vitro ADME
Conditions: male, Sprague Dowley, rat hepatocyte cell cultures, read-out: in vitro half-life
Excerpt: Metabolism of drugs means that a lipid-soluble xenobiotic or endobiotic compound is enzymatically transformed into (a) polar, water-soluble, and excretable metabolite(s). The major organ for drug metabolism is the liver. […] However, some metabolites may have enhanced activity or toxic effects. Thus drug metabolism may include both “detoxication” and “toxication” processes. One of the major enzyme systems that determine the organism's capability of dealing with drugs and chemicals is represented by the cytochrome P450 monooxygenases, which are NADPH dependent enzymes. Metabolic stability of compounds can be determined in vitro with the use of subcellular human tissue (see example C.5.a.). Here metabolic stability of the compounds is expressed as % of drug metabolised after 15 minutes incubation of these compounds with microsomes. Quantitation of the compounds was determined by LC-MS analysis. Metabolic stability of compounds can also be determined by calculating the half live of compounds in rat hepatocyte cells (see example C.5.b.).
Rat hepatocytes were isolated from male Sprague Dowley rats. The compounds were dissolved to a 5 mM stock solution in 100% DMSO and incubated at a final concentration of 5 μM for 0, 15, 30, 60 and 120 min with rat hepatocyte cell cultures (0.5 million viable cells/0.5 ml) using 24-well plates.
Samples were prepared for LC-MS by addition of two volumes of DMSO. The samples were thoroughly shaken and subsequently centrifuged at 900 g for 10 min (room temperature). All experiments were performed in triplicate. Of the resulting supernatant 50 μl was analysed by LC-MS.
For LC-MS, elution of samples was performed on a Hypersil BDS C18 column (50×4.6 mm, 5 μm, Thermohypersil, UK). […]
Total injection volume of samples was 50 μL. […] The mass spectrometer was operated in positive ion mode in SIM adjusted to the mass of M+H with a scan width of 1 Da for quantification purposes. […] The metabolic stability of compounds in rat hepatocytes was expressed as in vitro half-lives. […]

half-life at 5 μM: 30 to 55 min
Compound: Cn1c(CNCC2CCN(c3ncc(C(=O)NO)cn3)CC2)nc2ccccc21 [Compound 3]

— patent US7834011B2, “Heterocyclylalkyl derivatives as novel inhibitors of histone deacetylase” (Janssen Pharmaceutica N.V., priority 2006, dated 2010)
